Molecular target: human IDO1 (Homo sapiens, UniProt P14902)
Test: Assessment of human IDO-1 inhibitory activity in HEK cells (human IDO1/HEK293 cells, kynurenine read-out with Ehrlich reagent, absorbance 490 nm)
Format: cell-based
Design: expressed in transfected cells
Settings: HEK Human IDO-1 cellular assay
Outline: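 HEK293 cells stably expressing human IDO1 were seeded at 10,000 per well in phenol red-free RPMI with 10% FBS, treated with compound for 20 h at 37 °C. Kynurenine was measured after TCA (0.2% final) and 30 min at 50 °C, using Ehrlich reagent, A490. IC50 normalised to DMSO (0%) and 500 nM reference standard (100%).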

Sequence of human IDO1 (P14902 whole entry): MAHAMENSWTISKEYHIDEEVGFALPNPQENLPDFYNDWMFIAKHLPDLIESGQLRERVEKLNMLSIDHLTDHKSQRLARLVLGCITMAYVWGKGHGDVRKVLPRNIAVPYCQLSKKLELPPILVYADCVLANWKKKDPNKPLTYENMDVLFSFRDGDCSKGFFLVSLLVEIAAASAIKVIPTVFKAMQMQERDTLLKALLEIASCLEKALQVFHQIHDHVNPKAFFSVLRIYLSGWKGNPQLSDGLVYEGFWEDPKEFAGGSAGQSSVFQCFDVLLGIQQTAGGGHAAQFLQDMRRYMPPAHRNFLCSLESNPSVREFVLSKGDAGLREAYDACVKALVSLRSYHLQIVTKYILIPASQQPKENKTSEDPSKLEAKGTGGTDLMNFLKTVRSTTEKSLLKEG

Row | SMILES | IC50 [nM]
1 | CCC(CC(=O)O)c1ccc(N(CC(C)C)CC(C)(C)O)c(Nc2ccc(Cl)cc2)c1 (racemic) [Example 453, 3-(3-((4-chlorophenyl)amino)-4-((2-hydroxy-2-methyl-propyl)(isobutyl)amino)phenyl) pentanoic acid] | < 5
2 | CC[C@@H](CC(=O)O)c1ccc(N(CC(C)(C)O)C2CCCCC2)c(Nc2ccc(C#N)cc2)c1 (single isomer, unassigned) [Example 227] | < 5
3 | CC[C@H](CC(=O)O)c1ccc(N(CC)C2CCCCC2)c(Nc2ccc(Cl)cc2)c1 (single isomer, unassigned) [Example 285] | < 5
4 | CC[C@@H](CC(=O)O)c1ccc(N(CC)C2CCOCC2)c(Nc2ccn3nccc3n2)c1 (single isomer, unassigned) [Example 468] | > 50
5 | CCOc1ncc(Nc2cc(C(C)CC(=O)O)ccc2N(CC(C)(C)O)C2CCCCC2)cn1 (single isomer, unassigned) [Example 54, 3-(4-(cyclohexyl(2-hydroxy-2-methylpropyl)amino)-3-((2-ethoxypyrimidin-5-yl)amino)phenyl)butanoic acid] | < 50
6 | CCc1ccc(Nc2cc([C@H](CC)CC(=O)O)ccc2N2CCOC[C@@H]2C(C)C)cc1 (single isomer, unassigned) [Example 91] | < 50
7 | CCC(CC(=O)O)c1cc(F)c(N(CC(C)C)CC(C)C)c(NC(=O)c2ccc(Cl)cc2)c1 (single isomer, unassigned) [Example 127, 3-(3-(4-Chlorobenzamido)-4-(diisobutylamino)-5-fluorophenyl)pentanoic acid] | > 50
8 | CC[C@@H](CC(=O)O)c1ccc(N2CCOC[C@@H]2C(C)C)c(Nc2ccc(Cl)cc2)c1 (single isomer, unassigned) [Example 78] | < 50
9 | CCN(c1ccc([C@@H](COC)CC(=O)O)cc1Nc1ccc(Cl)cc1)C1CCOCC1 (single isomer, unassigned) [Example 376] | < 5
10 | COCC(CC(=O)O)c1ccc(N(CC(C)C)C2CCCCC2)c(NC(=O)Nc2ccccc2F)c1 (single isomer, unassigned) [1125 E2] | < 5
11 | CC[C@@H](CC(=O)O)c1ccc(N2CCOC[C@@H]2C(C)C)c(NC(=O)Nc2ccc(OC)cc2F)c1 (single isomer, unassigned) [Example 76] | > 50
12 | CCC(CC(=O)O)c1ccc(N(CC(C)C)C2CCCCC2)c(Nc2ccc3c(c2)OC(F)(F)O3)c1 (single isomer, unassigned) [Example 299, 3-(4-(Cyclohexyl(isobutyl)amino)-3-((2,2-difluorobenzo[d][1,3]dioxol-5-yl)amino)phenyl)pentanoic acid] | < 5
13 | COCC(CC(=O)O)c1ccc(N(CC(C)C)CC(C)C)c(NC(=O)Nc2ccc(Cl)cc2F)c1 (single isomer, unassigned) [995-1] | < 5
14 | CCC(CC(=O)O)c1ccc(N(CC)C2CCCOC2)c(NC(=O)Nc2ccc(C)cc2)c1 (single isomer, unassigned) [Example 73 D4, 3-(4-(Ethyl(tetrahydro-2H-pyran-3-yl)amino)-3-(3-(p-tolyl)ureido)phenyl)pentanoic acid] | < 5
15 | CCOc1ccc(Nc2cc([C@@H](CC)CC(=O)O)ccc2N(CC)C2CCOCC2)cc1 (single isomer, unassigned) [Example 474] | < 5
16 | Cc1ccc(CC(=O)Nc2cc(C(CC(=O)O)C(C)C)ccc2N(C)C(C)(C)C)cc1 (single isomer, unassigned) [1007-1] | > 50
17 | CC[C@@H](CC(=O)O)c1ccc(N(CC(C)(C)O)C2CCCCC2)c(Nc2ccc(OC(F)F)cc2)c1 (single isomer, unassigned) [Example 226] | < 5
18 | CC[C@@H](CC(=O)O)c1ccc(N(CC)C2CCCCC2)c(Nc2ccc(OC(F)F)cc2)c1 (single isomer, unassigned) [Example 284] | < 5
19 | CC[C@@H](CC(=O)O)c1ccc(N(CC(C)(C)O)C2CCCCC2)c(Nc2ccc(Cl)cc2)c1 (single isomer, unassigned) [Example 231] | < 5
20 | CCOc1ncc(Nc2cc([C@H](CC)CC(=O)O)ccc2N(CC2CC2)CC(C)(C)O)cn1 (single isomer, unassigned) [Example 274] | < 50
21 | CCC(CC(=O)O)c1ccc(N(CC(C)C)C2CCCCC2)c(Nc2ccc3c(c2)OCCO3)c1 (single isomer, unassigned) [Example 301, 3-(4-(cyclohexyl(isobutyl)amino)-3-((2,3-dihydrobenzo[b][1,4]dioxin-6-yl)amino)phenyl) pentanoic acid] | < 50

The next lines start with the values.

Row | IC50 [nM] | SMILES
22 | < 5 | CCOc1ccc(NC(=O)Nc2cc(C(COC)CC(=O)O)ccc2N(CC(C)C)C2CCCCC2)cc1 (single isomer, unassigned) [Example 1235, 3-(4-(Cyclohexyl(isobutyl)amino)-3-(3-(4-ethoxyphenyl)ureido)phenyl)-4-methoxybutanoic acid]
23 | < 5 | CCCN(c1ccc([C@@H](CC)CC(=O)O)cc1Nc1cnc(OC)nc1)C1CCOCC1 (single isomer, unassigned) [Example 540]
24 | < 5 | CC[C@@H](CC(=O)O)c1ccc(N(CC)C2CCOCC2)c(Nc2ccc3nc(C)sc3c2)c1 (single isomer, unassigned) [Example 484]
25 | > 50 | CC[C@H](CC(=O)O)c1ccc(N(CC)C2CCOCC2)c(Nc2cn3ccnc3cn2)c1 (single isomer, unassigned) [Example 523]
26 | < 50 | CCN(c1ccc(C(CC(=O)O)c2ccccc2)cc1Nc1ccc(Cl)cc1)C1CCOCC1 (single isomer, unassigned) [Example 590, 3-(3-((4-chlorophenyl)amino)-4-(ethyl(tetrahydro-2H-pyran-4-yl)amino)phenyl)-3-phenylpropanoic acid]
27 | < 50 | CCOc1ncc(Nc2cc(C(CC)CC(=O)O)ccc2N2CCOC[C@H]2C(C)C)cn1 (single isomer, unassigned) [Example 903]
28 | < 5 | CCCN(c1ccc(C(CC)CC(=O)O)cc1NC(=O)Nc1ccc(OC)cc1F)C1CCOCC1 (racemic) [Example 609, 3-(3-(3-(2-Fluoro-4-methoxyphenyl)ureido)-4-(propyl(tetrahydro-2H-pyran-4-yl)amino)phenyl)pentanoic acid]
29 | > 50 | CC(C)CN(CC(C)C)c1ccc(C(CC(=O)O)CN(C)C)cc1NC(=O)Nc1cncnc1 (racemic) [Example 1001, (+/−)-3-(4-(Disobutylamino)-3-(3-(pyrimidin-5-yl)ureido)phenyl)-4-(dimethylamino)butanoic acid]
30 | < 50 | COCC(CC(=O)O)c1ccc(N(CC(C)C)C2CCCCC2)c(NC(=O)Nc2cncnc2)c1 (racemic) [Example 990, (+/−)-3-(4-(Cyclohexyl(isobutyl)amino)-3-(3-(pyrimidin-5-yl)ureido)phenyl)-4-methoxybutanoic acid]
31 | < 50 | CCN(c1ccc(C(CC(=O)O)c2ccccc2)cc1Nc1ccc(OC(F)F)cc1)C1CCOCC1 (single isomer, unassigned) [Example 583, 3-(3-((4-(difluoromethoxy)phenyl)amino)-4-(ethyl(tetrahydro-2H-pyran-4-yl)amino)phenyl)-3-phenylpropanoic acid]
32 | < 50 | CCC(CC(=O)O)c1ccc(N(CC(C)C)C2CCCCC2)c(Nc2ccc(Cl)c(OC(F)F)c2)c1 (single isomer, unassigned) [Example 649]
33 | < 50 | CC[C@H](CC(=O)O)c1ccc(N(CC)C2CCOCC2)c(Nc2ccc(Cl)c(OC)c2)c1 (single isomer, unassigned) [Example 521]
34 | > 50 | CC[C@H](CC(=O)O)c1ccc(N(CC)C2CCOCC2)c(Nc2ccc3nncn3c2)c1 (single isomer, unassigned) [Example 512]
35 | < 50 | COCC(CC(=O)O)c1cc(F)c(N(CC(C)C)C2CCCCC2)c(NC(=O)Nc2cc(C)on2)c1 (single isomer, unassigned) [Example 1158, 3-(4-(cyclohexyl(isobutyl)amino)-3-fluoro-5-(3-(5-methylisoxazol-3-yl)ureido)phenyl)-4-methoxybutanoic acid]
36 | > 50 | COCC(CC(=O)O)c1cc(F)c(N(CC(C)C)CC(C)C)c(NC(=O)Nc2cncnc2)c1 (single isomer, unassigned) [Example 1196, 3-(4-(Diisobutylamino)-3-fluoro-5-(3-(pyrimidin-5-yl)ureido)phenyl)-4-methoxybutanoic acid]
37 | < 50 | CCOc1ncc(Nc2cc(C(CC)CC(=O)O)ccc2N2CCC[C@H]2C(C)(C)O)cn1 (single isomer, unassigned) [Example 823]
38 | < 5 | CCOc1ccc(NC(=O)Nc2cc(C(COC)CC(=O)O)cc(F)c2N(CC(C)C)CC(C)C)c(F)c1 (single isomer, unassigned) [Example 1191, 3-(4-(Diisobutylamino)-3-(3-(4-ethoxy-2-fluorophenyl)ureido)-5-fluorophenyl)-4-methoxybutanoic acid]
39 | > 50 | CCC(CC(=O)O)c1ccc(N(CC(C)C)C(C)C)c(Nc2ccc3nc(C)sc3c2)c1 (single isomer, unassigned) [Example 729, 3-(4-(isobutyl(isopropyl)amino)-3-((2-methylbenzo[d]thiazol-6-yl)amino)phenyl)pentanoic acid]
40 | < 5 | CCOc1ccc(Nc2cc([C@@H](CC)CC(=O)O)ccc2N(CC)C2CCOCC2)nc1 (single isomer, unassigned) [Example 482]
41 | < 5 | CCOc1ccc(Nc2cc([C@H](CC)CC(=O)O)ccc2N(CC)C2CCOCC2)nc1 (single isomer, unassigned) [Example 522]
42 | < 5 | CC[C@@H](CC(=O)O)c1ccc(N(CC)C2CCOCC2)c(Nc2ccc(Cl)c(OC)c2)c1 (single isomer, unassigned) [Example 481]
43 | < 5 | CCc1ccc(Nc2cc([C@@H](CC)CC(=O)O)ccc2N(CC)C2CCOCC2)cc1 (single isomer, unassigned) [Example 477]
44 | > 50 | CC[C@@H](CC(=O)O)c1ccc(N(CC)C2CCOCC2)c(NC(=O)Nc2ccc(Cl)nc2)c1 (single isomer, unassigned) [Example 495]
